Measurements: PMC10227015, “From a drug repositioning to a structure-based drug design approach to tackle acute lymphoblastic leukemia” (Nature Communications, 2023)
Where two headings read alike, the source gives them in different places.

Experiments:
CCRF-CEM cell line [1] = assay: CCRF-CEM proliferation, compound alone (nonspecific toxicity); type: cell-based, human; conditions: compound 10 µM alone, 72 h
Experimental: The dCK cellular assay was set up to assess the ability to inhibit dCK activity in a cellular model. The model was developed with a T-cell acute lymphoblastic leukemia cell line (CCRF-CEM), because of its high dependence on the SP, thus on dCK activity. Cellular assays were performed to assess the inhibition of cell proliferation under two conditions: (i) in the presence of the compound alone to determine the nonspecific effect on cells, independent of dCK (nonspecific toxicity) and (ii) in the presence of an inhibitor of the DNP to determine the ability of compounds to inhibit dCK and decrease tumor proliferation (activity on dCK). The inhibitor of the DNP chosen for the experiments was thymidine (dT), a physiological inhibitor of ribonucleotide reductase which arrests cell proliferation in phase S. The dTTP produced via thymidine kinase from dT acts as a RNR inhibitor by an allosteric regulation of the R1 subunit. The addition of the nucleoside deoxycytidine (dC) in the medium allows the rescue of cell proliferation by passing only through the salvage pathway, mediated by dCK. dC needs to be added exogenously to mimic physiological concentrations because it is not present in the cell culture medium, on the contrary to mouse model, in which it is naturally present in the serum. Therefore, cell proliferation under these conditions (+dT +dC) is dCK dependent and it is possible to determine the IC50 of dCK inhibitors on the inhibition of cell proliferation. Results are expressed as % cell proliferation relative to the control with DMSO.
The amount of reduced dye formed by metabolically active cells was quantified by its fluorescence measured at 560 nm (excitation) and 590 nm (emission) in a microplate reader (CLARIOstar, BMG Labtech). A blank well without cells was used as a background control. Each experiment was performed at least three times (with technical triplicates) and data are presented as the mean ± SD.

dCK-C3S-S74E [2] = molecular target: T1, dCK-C3S-S74E (Homo sapiens, UniProt P27707, form not given/S74E); assay: Enzymatic assay (PK/LDH coupled), dC phosphorylation by dCK in the presence of UTP; type: biochemical; conditions: presence of UTP
Experimental: (§1) For enzymatic assays, cells were re-suspended in 20 mM TRIS, pH 8 500 mM NaCl, 0.1% BRIJ-35 and 5% glycerol buffer and one EDTA free anti-protease tablet was added (Roche). After sonication and centrifugation (30,000 × g), the supernatant was loaded on a 5 ml HisTrap FF column (GE healthcare) pre-equilibrated with 20 mM TRIS, pH 8, 500 mM NaCl, 0.01% BRIJ-35 and 5% glycerol buffer. The protein was then eluted by the same buffer containing 250 mM imidazole after a wash containing 25 mM imidazole. The eluted fraction was applied on a HiPrep 26/10 desalting column (GE healthcare) pre-equilibrated with 20 mM TRIS, pH 8, 500 mM NaCl, 5% glycerol and 0.01% BRIJ-35 buffer. Finally, protein in a 20% glycerol buffer was flash frozen in liquid nitrogen and stored at −80 °C.
(§2) Kinetic analyses were performed using a spectrophotometric continuous enzymatic-coupled assay using pyruvate kinase (PK) and lactate dehydrogenase (LDH). […] UTP is the physiological dCK-phosphate donor[46] and it was used to determine activation versus inhibition behavior. ATP was used to calculate IC50 values, as it allows the analysis of a dose response curve. The PK/LDH coupled assay is based on the conversion of phosphoenolpyruvate (PEP) and UDP/ADP to pyruvate and UTP/ATP by PK and the subsequent conversion of pyruvate to lactate by LDH. The latter step requires NADH, which is oxidized to NAD^+. NADH is fluorescent (excitation at 337 nm and emission at 460 nm), but not NAD^+. Thus, the measurement of fluorescent decrease at 460 nm is a measure of kinase activity. dCK experiments were performed in a buffer containing 50 mM HEPES, pH 7.5, 5 mM MgCl2, 1 mM DTT, and 100 mM KCl. Buffer was supplemented with PK (0.01 U/µl), LDH (0.02 U/µl), PEP (1 mM), NADH (300 µM) and compounds at varying concentrations. For UTP assays, protein concentration was 2 μM, substrate 200 µM (dC), and UTP 1 mM. For ATP assays, protein concentration was 100 nM (and 50 nM when indicated), substrate 100 µM (dC), and ATP 1 mM. All measurements were performed on a microplate reader Pherastar FS (BMG Labtech). All assays were performed in triplicate and each experiment was performed at least twice. The data are presented as mean ± SD. The results were plotted as kinetics and the velocity was determined for each condition as the slope of the linear range of the curve. For each compound concentration, the velocity of the reaction (according to V = d[P]/dt) was normalized with respect to the drug free control and velocity ratios were compared. IC50 values corresponding to enzymatic inhibition in ATP were calculated by nonlinear regression curves using GraphPad Prism software 9.4.0.

dCK-C3S-S74E [3] = molecular target: T1, dCK-C3S-S74E; assay: Enzymatic assay (PK/LDH coupled), dC phosphorylation by dCK in the presence of ATP; type: biochemical
Experimental: as §1
(§3) Kinetic analyses were performed using a spectrophotometric continuous enzymatic-coupled assay using pyruvate kinase (PK) and lactate dehydrogenase (LDH). Analysis of the effect of compounds on dCK-C3S-S74E activity was performed using dC as substrate and UTP/ATP as phosphate donors. UTP is the physiological dCK-phosphate donor[46] and it was used to determine activation versus inhibition behavior. ATP was used to calculate IC50 values, as it allows the analysis of a dose response curve. The PK/LDH coupled assay is based on the conversion of phosphoenolpyruvate (PEP) and UDP/ADP to pyruvate and UTP/ATP by PK and the subsequent conversion of pyruvate to lactate by LDH. The latter step requires NADH, which is oxidized to NAD^+. NADH is fluorescent (excitation at 337 nm and emission at 460 nm), but not NAD^+. Thus, the measurement of fluorescent decrease at 460 nm is a measure of kinase activity. dCK experiments were performed in a buffer containing 50 mM HEPES, pH 7.5, 5 mM MgCl2, 1 mM DTT, and 100 mM KCl. Buffer was supplemented with PK (0.01 U/µl), LDH (0.02 U/µl), PEP (1 mM), NADH (300 µM) and compounds at varying concentrations. For UTP assays, protein concentration was 2 μM, substrate 200 µM (dC), and UTP 1 mM. For ATP assays, protein concentration was 100 nM (and 50 nM when indicated), substrate 100 µM (dC), and ATP 1 mM. All measurements were performed on a microplate reader Pherastar FS (BMG Labtech). All assays were performed in triplicate and each experiment was performed at least twice. The data are presented as mean ± SD. The results were plotted as kinetics and the velocity was determined for each condition as the slope of the linear range of the curve. For each compound concentration, the velocity of the reaction (according to V = d[P]/dt) was normalized with respect to the drug free control and velocity ratios were compared. IC50 values corresponding to enzymatic inhibition in ATP were calculated by nonlinear regression curves using GraphPad Prism software 9.4.0.

CCRF-CEM cell line [4] = assay: dCK cellular assay: CCRF-CEM proliferation in the presence of dT and dC; type: cell-based, human; conditions: for IC50: Homo sapiens
Method in brief: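 Two conditions in T-ALL CCRF-CEM cells: compound only, and compound with thymidine blocking de novo synthesis and deoxycytidine rescuing via dCK. Metabolic dye fluorescence (560/590 nm) gives % proliferation vs DMSO; IC50s, mean ± SD of at least three triplicate runs.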

dCK-C3S-S74E [5] = assay: Enzymatic assay (PK/LDH coupled), dC phosphorylation by dCK in the presence of UTP; type: biochemical, human; conditions: presence of UTP
Experimental: as §1, §2

dCK-C3S-S74E [6] = assay: Enzymatic assay (PK/LDH coupled), dC phosphorylation by dCK in the presence of ATP; type: biochemical, human; conditions: presence of ATP, [dCK] = 50 nM (footnote A); read-out: ENZYMATIC ASSAY IC50
Experimental: as §1, §3

dCK-C3S-S74E [7] = assay: Thermal shift assay (TSA); conditions: for ΔTm (º) (TSA): Figure 2a, mean; for THERMAL SHIFT ASSAY +Tm (°): mean ± SD
From the text: (§4) BL21 pRIL Escherichia coli cells were transformed with dCK-plasmids (dCK-C4S-S74E (for crystallization assays) and dCK-C3S-S74E (for TSA, enzymatic and ITC assays)). […] Protein dCK-C3S-S74E used for other assays contained only three mutated cysteines. The S74E mutation mimics the phosphorylated state of this serine, which favors the open conformation of the enzyme, making it competent for nucleoside binding[45] to evaluate the binding affinity with compounds.
(§5) For binding assays (TSA, ITC and crystallography) cells were re-suspended in 50 mM TRIS, pH 8, 500 mM NaCl, 30 mM imidazole and 10% glycerol buffer and one EDTA free anti-protease tablet was added (Roche). After sonication and centrifugation (30,000 × g), the supernatant was loaded on a 5 ml HisTrap FF column (GE healthcare) pre-equilibrated with resuspension buffer. Protein was then eluted by resuspension buffer containing 500 mM imidazole. Protein eluted fractions were mixed and concentrated. Protein was further purified by size exclusion chromatography (superdex 200 16/600, GE healthcare) in 20 mM HEPES, pH 7.5, and 200 mM NaCl before concentration to 30 mg/ml and storage at −80 °C.
(§6) Thermal shift assay (TSA) experiments were performed in 384-well PCR white plates in the assay buffer containing 20 mM HEPES, pH 7.5 and 200 mM NaCl. […] Plates were centrifuged at 200 × g for 2 min at 4 °C. […] Raw fluorescence data were treated, and the melting temperatures (Tm) were calculated using CFX Manager 3.1 software (Bio-Rad). ΔTm represents the difference in Tm between the protein in the presence of compound and the protein alone (both at 2% DMSO). Each experiment was performed at least twice (with technical triplicates) and data are presented as the mean ± SD.

dCK-C3S-S74E [8] = molecular target: T1, dCK-C3S-S74E; assay: Thermal shift assay (TSA)
From the text: as §4, §5, §6

[9] = Figure 2a, CCRF-CEM cell line, mean, read-out: IC50 (nM) (Cell Prolif)

T1 sequence (P27707 whole entry S74E, form open): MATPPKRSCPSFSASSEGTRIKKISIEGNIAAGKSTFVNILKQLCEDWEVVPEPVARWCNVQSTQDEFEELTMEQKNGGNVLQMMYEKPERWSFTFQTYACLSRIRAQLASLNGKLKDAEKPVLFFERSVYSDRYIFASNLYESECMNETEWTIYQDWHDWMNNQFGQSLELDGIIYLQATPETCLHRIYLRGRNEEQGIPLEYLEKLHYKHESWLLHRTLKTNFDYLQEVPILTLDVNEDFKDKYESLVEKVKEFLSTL
T1 sequence (P27707 whole entry S74E, form open): as above

SMILES	ENZYMATIC ASSAY (Activation/Inhibition) (dCK-C3S-S74E [5])	IC50 (dCK-C3S-S74E [6]) [µM]	ΔTm (º) (TSA) (dCK-C3S-S74E [7])	THERMAL SHIFT ASSAY +Tm (°) (dCK-C3S-S74E [7])	IC50 (CCRF-CEM cell line [4]; [9]) [nM]	also measured
Cc1ccc(NC(=O)c2ccc(CN3CCN(C)CC3)cc2)cc1Nc1nc(-c2cccnc2)cs1 [Masitinib, masitinib, reference compound]	–	–	–	–	–	Cell proliferation of the CCRF-CEM cell line Mean (% prolif) (CCRF-CEM cell line [1]): 87.5%
CCCN(c1nc(-c2nccc(N)n2)cs1)c1cc(-c2ccc(OCC(=O)N3CCN(C)CC3)cc2)ccc1C [OR0597]	–	–	–	–	–	ENZYMATIC ASSAY (Activation/Inhibition) (dCK-C3S-S74E [2]): I; IC50 (dCK-C3S-S74E [3]; read-out: ENZYMATIC ASSAY IC50, presence of ATP, [dCK] = 100 nM): 0.349 ± 0.089 µM; IC50 (CCRF-CEM cell line [4]; read-out: dCK CELLULAR ASSAY IC50 (nM), CCRF-CEM, 200 µM dT and 1 µM dC, read-out: dCK […] ASSAY IC50): 220 ± 127 nM
Cc1ccc(-c2ccc(S(=O)(=O)N3CCN(C)CC3)cc2)cc1Nc1nc(-c2nc(N)cc(N)n2)cs1 [OR0614]	A/I	0.233 ± 0.083	18.1 º	18.1 ± 0.8	10000	–
CCCN(c1nc(-c2nc(N)cc(N)n2)cs1)c1cc(-c2ccc(S(=O)(=O)N3CCN(CC(=O)[O-])CC3)cc2)ccc1C.[Na+] [OR0649]	–	–	–	–	–	ΔTm (º) (TSA) (dCK-C3S-S74E [8]; Figure 2a, mean): 17.61 º; IC50 (CCRF-CEM cell line [4]; CCRF-CEM, read-out: IC50 (nM) (Cell Prolif)): 13400 nM
CCCN(c1nc(-c2cccnc2)cs1)c1cc(-c2ccc(S(=O)(=O)N3CCN(C)CC3)cc2)ccc1C [OR0659]	–	–	–	–	–	IC50 (dCK-C3S-S74E [3]; ATP, read-out: enzymatic inhibition IC50): > 100 µM; ΔTm, dCK thermal stabilization (TSA) (dCK-C3S-S74E [8]; 5 μM protein, 50 μM compound): 6.3 °C; inhibition of cell proliferation in combination with dT (CCRF-CEM cell line [4]; CCRF-CEM, presence of dT + dC): unable to inhibit cellular proliferation

The next lines start with results.

ENZYMATIC ASSAY (Activation/Inhibition) (dCK-C3S-S74E [5])	IC50 (dCK-C3S-S74E [6]) [µM]	ΔTm (º) (TSA) (dCK-C3S-S74E [7])	THERMAL SHIFT ASSAY +Tm (°) (dCK-C3S-S74E [7])	IC50 (CCRF-CEM cell line [4]; [9]) [nM]	SMILES	also measured
I	0.195 ± 0.016	16.58 º	16.6 ± 0.8	1000	CCCN(c1nc(-c2nc(N)cc(N)n2)cs1)c1cc(-c2ccc(C(=O)N3CCN(C)CC3)nc2)ccc1C [OR0612]	–
I	0.088 ± 0.068	17.5 º	17.5 ± 0.7	411	CCCN(c1nc(-c2nc(N)cc(N)n2)cs1)c1cc(-c2ccc(S(N)(=O)=O)cc2)ccc1C [OR0615]	–
I	0.181 ± 0.015	18.29 º	18.3 ± 1.1	78	CCCN(c1nc(-c2nc(N)cc(N)n2)cs1)c1cc(-c2ccc(S(=O)(=O)N3CCOCC3)cc2)ccc1C [OR0617]	–
I	0.139 ± 0.012	18.79 º	18.8 ± 0.6	80	CCCN(c1nc(-c2nc(N)cc(N)n2)cs1)c1cc(-c2ccc(S(=O)(=O)N(C)C)cc2)ccc1C [OR0618]	–
